Measured values published in patent US9718802B2, “Crystal form of dabigatran etexilate mesylate and preparation method and use thereof” (Zhejiang Hisun Pharmaceutical Co., Ltd., priority 2014, dated 2017).
“Also recorded” adds a separate entry of the source.

Assays:
Format in all cases: physicochemical
[1] = Test 3 stability data under −20° C. for 6 months (liquid chromatography); details: in % (unit assumed)
Method: (§1) Liquid chromatography test conditions are: chromatographic column is Merck Purospher®STAR RP-18 endcapped 250×4.6 mm, 5 μm; mobile phase A: acetonitrile, mobile phase B: 4 ml phosphoric acid added in 1 L water, the pH is adjusted to 3.5 by triethylamine; detecting wavelength: 310 nm; flow rate: 1 ml/min; sample load: 10 μl; column temperature: 30° C., liquid chromatography conditions are shown in table 4:
(§2) The inventor has tested the chemical stability of the crystal form M and crystal form N under normal temperature, cold storage and freezing conditions and compared the chemical stability with crystal form I, crystal form II and semihydrate crystal form, see tests 1-3. In the tests, crystal form I, crystal form II and semihydrate crystal form are all prepared according to the method disclosed in patent document U.S. Pat. No. 7,932,273B2.
Test 3 stability data under −20° C. for 6 months (see table 7)

[2] = Test 1 stability data under 25° C. for 6 months (liquid chromatography); details: for Major peak: 25° C., in % (unit assumed); for chemical stability compared with crystal form I, crystal form II and the semihydrate crystal form: normal temperature and cold storage conditions
Method: as §1, §2

[3] = Test 2 stability data under 5° C. for 6 months (liquid chromatography); details: for Major peak: 5° C., in % (unit assumed); for storage stability: cold storage and freezing conditions
Method: as §1, §2
Test 2 stability data under 5° C. for 6 months (see table 6)

[4] = Crystal form of samples after 6 months stability tests under different temperature; details: 6 months under different temperature
[5] = Test 4 stability of crystal form N in 95% ethanol solution (XRD); details: stirred for 3, 4 and 5 hours
Method: In the following examples and tests, the powder X-ray diffractometer and the test conditions are: X-ray diffractomer model Rigaku D/max-2200 Cu target; operation method: scan rate 4°/min, scan width 0.01°.
Test 4 the stability in formulation of crystal form N
This indicate that the crystal form N is stable in the 95% ethanol solution, therefore, it has great stability in the related formulation processes.

| SMILES | Major peak ([1]; 1 month) | Major peak ([1]; 2 months) | Major peak ([1]; 3 months) | Major peak ([1]; 4 months) | Major peak ([1]; 5 months) | Major peak ([1]; 6 months) | Major peak ([2]; 0 month) | Major peak ([2]; 1 month) | Major peak ([2]; 2 months) | Major peak ([2]; 3 months) | Major peak ([2]; 4 months) | Major peak ([2]; 5 months) | Major peak ([2]; 6 months) | Major peak ([3]; 0 month) | Major peak ([3]; 1 month) | Major peak ([3]; 2 months) | Major peak ([3]; 3 months) | Major peak ([3]; 4 months) | Major peak ([3]; 5 months) | Major peak ([3]; 6 months) | other results |
| --- | --- | --- | --- | --- | --- | --- | --- | --- | --- | --- | --- | --- | --- | --- | --- | --- | --- | --- | --- | --- | --- |
| CCCCCCOC(=O)/N=C(/N)c1ccc(NCc2nc3cc(C(=O)N(CCC(=O)OCC)c4ccccn4)ccc3n2C)cc1.CS(=O)(=O)O [Crystal form I, 3-[(2-{[4-(hexaoxycarbonylamino-imino-methyl)-phenylamino]-methyl}-1-methyl-1H-benzimidazole-5-carbonyl)-pyridine-2-yl-amino-]-ethyl propionate-mesylate] | 99.693 | 99.694 | 99.690 | 99.692 | 99.691 | 99.692 | 99.690 | 99.604 | 99.574 | 99.468 | 99.308 | 99.309 | 99.220 | 99.676 | 99.655 | 99.651 | 99.652 | 99.651 | 99.649 | 99.643 | – |
| CCCCCCOC(=O)/N=C(/N)c1ccc(NCc2nc3cc(C(=O)N(CCC(=O)OCC)c4ccccn4)ccc3n2C)cc1.CS(=O)(=O)O [Crystal form II, 3-[(2-{[4-(hexaoxycarbonylamino-imino-methyl)-phenylamino]-methyl}-1-methyl-1H-benzimidazole-5-carbonyl)-pyridine-2-yl-amino-]-ethyl propionate-mesylate] | 99.630 | 99.633 | 99.634 | 99.630 | 99.632 | 99.632 | 99.646 | 99.493 | 99.408 | 99.290 | 99.069 | 99.029 | 98.911 | 99.631 | 99.630 | 99.643 | 99.640 | 99.641 | 99.598 | 99.592 | – |
| CCCCCCOC(=O)/N=C(/N)c1ccc(NCc2nc3cc(C(=O)N(CCC(=O)OCC)c4ccccn4)ccc3n2C)cc1.CS(=O)(=O)O [Crystal form M, 3-[(2-{[4-(hexaoxycarbonylamino-imino-methyl)-phenylamino]-methyl}-1-methyl-1H-benzimidazole-5-carbonyl)-pyridine-2-yl-amino-]-ethyl propionate-mesylate] | 99.722 | 99.728 | 99.737 | 99.737 | 99.739 | 99.737 | 99.711 | 99.632 | 99.614 | 99.595 | 99.582 | 99.574 | 99.541 | 99.654 | 99.650 | 99.648 | 99.651 | 99.649 | 99.649 | 99.648 | chemical stability compared with crystal form I, crystal form II and the semihydrate crystal form [2]: better chemical stability; crystal form of samples after stability tests [4]: not changed; storage stability [3]: can be stored stable for a long time |

Continued, in another order:

| Major peak ([1]; 1 month) | Major peak ([1]; 2 months) | Major peak ([1]; 3 months) | Major peak ([1]; 4 months) | Major peak ([1]; 5 months) | Major peak ([1]; 6 months) | Major peak ([2]; 0 month) | Major peak ([2]; 1 month) | Major peak ([2]; 2 months) | Major peak ([2]; 3 months) | Major peak ([2]; 4 months) | Major peak ([2]; 5 months) | Major peak ([2]; 6 months) | Major peak ([3]; 0 month) | Major peak ([3]; 1 month) | Major peak ([3]; 2 months) | Major peak ([3]; 3 months) | Major peak ([3]; 4 months) | Major peak ([3]; 5 months) | Major peak ([3]; 6 months) | SMILES | other results |
| --- | --- | --- | --- | --- | --- | --- | --- | --- | --- | --- | --- | --- | --- | --- | --- | --- | --- | --- | --- | --- | --- |
| 99.723 | 99.726 | 99.734 | 99.733 | 99.734 | 99.733 | 99.701 | 99.631 | 99.618 | 99.601 | 99.580 | 99.572 | 99.536 | 99.660 | 99.659 | 99.655 | 99.652 | 99.650 | 99.650 | 99.649 | CCCCCCOC(=O)/N=C(/N)c1ccc(NCc2nc3cc(C(=O)N(CCC(=O)OCC)c4ccccn4)ccc3n2C)cc1.CS(=O)(=O)O [Crystal form N, 3-[(2-{[4-(hexaoxycarbonylamino-imino-methyl)-phenylamino]-methyl}-1-methyl-1H-benzimidazole-5-carbonyl)-pyridine-2-yl-amino-]-ethyl propionate-mesylate] | stability in 95% ethanol solution (X-Ray powder diffractograms) [5]: not changed within 5 hours; also recorded: very good stability; chemical stability compared with crystal form I, crystal form II and the semihydrate crystal form [2]: better chemical stability; crystal form of samples after stability tests [4]: not changed; storage stability [3]: can be stored stable for a long time |
| 99.834 | 99.833 | 99.836 | 99.839 | 99.840 | 99.836 | 99.847 | 99.707 | 99.631 | 99.587 | 99.447 | 99.334 | 99.254 | 99.828 | 99.827 | 99.830 | 99.826 | 99.831 | 99.827 | 99.832 | CCCCCCOC(=O)/N=C(/N)c1ccc(NCc2nc3cc(C(=O)N(CCC(=O)OCC)c4ccccn4)ccc3n2C)cc1.CS(=O)(=O)O [Semihydrate crystal form, 3-[(2-{[4-(hexaoxycarbonylamino-imino-methyl)-phenylamino]-methyl}-1-methyl-1H-benzimidazole-5-carbonyl)-pyridine-2-yl-amino-]-ethyl propionate-mesylate] | – |
